The source of these data is paper PMC9555309, “Improvement of native structure-based peptides as efficient inhibitors of protein-protein interactions of SARS-CoV-2 spike protein and human ACE2” (Frontiers in Molecular Biosciences, 2022).

No end group written: not given here.

One series deals with BEAS 2B cells. Description: MTS cell viability assay, BEAS 2B. The class given is cell-based, human. The settings on record: 72 h exposure, concentrations up to 1 mM. Here is the method: (§1) BEAS 2B (cat. no.: ATCC® CRL-9609™) and Calu-3 (cat. no.: ATCC HTB-55™) cell lines were purchased from the American Type Culture Collection (ATCC, United States). BEAS 2B cells were maintained in Bronchial Epithelial Cell Growth Medium (BEGM) containing Bronchial Epithelial Basal Medium (BEBM cat. no.: CC-3171) supplemented with growth factors (SingleQuotsTM Supplement Pack cat. no.: CC-4175), both from Lonza (Switzerland). […]
(§2) After 72 h of incubation at 37°C, the combined solution of MTS (Promega, United States, cat. no.: G1112) and an electron coupling reagent, phenazine methosulfate (PMS, Sigma-Aldrich, Merck, Germany, cat. no.: P9625) was added to the cell culture media, to a final concentration of 333 μg/ml MTS and 25 μM PMS. Cells were then incubated for 3 h at 37°C in a humidified, 5% CO2 atmosphere, and the absorbance at 490 nm wavelength was measured using a spectrophotometer (Synergy HT Microplate Reader, BioTek, United States). The absorbance values recorded for cells exposed to peptide were compared to values measured for untreated control cells, regarded as 100% cell viability.
(§3) The amount of formazan product measured spectrophotometrically is directly proportional to the number of viable cells ([Berridge et al., 2005]).

The target of series [1] is RBD domain of the SARS-CoV-2 S protein (Severe acute respiratory syndrome coronavirus 2, UniProt P0DTC2). Description: biochemical. The class given is binding. The settings on record: KD Tmeasur. 25°C.
Another series concerns Calu-3 cells. Briefly: MTS cell viability assay, Calu-3. The class given is cell-based, human. The settings on record: Calu-3, 72 h exposure, concentrations up to 1 mM. Here is the method:
as §1, §2, §3
For orientation: Tetrazolium dyes change colour on reduction, which living cells bring about.

The test system of series [2] is SARS-CoV-2 S protein - hACE2 interaction. The settings on record: ref Odolczyk et al., 2021; read-out: IC50 inhibition of virus-host protein-protein interaction; cited from earlier work.

As usually defined, the Kd is the constant that tells how readily two partners part at equilibrium. A high value points to a looser complex. By IC50 is commonly meant the concentration that gives 50% inhibition.

In the case of `NC(=O)C[C@H](NC(=O)CNC(=O)[C@H](Cc1ccc(O)cc1)NC(=O)[C@@H](N)CC(=O)O)C(=O)N[C@@H](Cc1c[nH]cn1)C(=O)N[C@@H](CCC(=O)O)C(=O)O` [J3, DYGNHE], the “Cell viability (MTS)” value in the series with BEAS 2B cells and in the series with Calu-3 cells was “not affected” in each case. In addition, in series [1], the Kd came out at 0.05 ± 0.01 µM.

On to `NCCCC[C@H](NC(=O)[C@@H](N)CC(=O)O)C(=O)NCC(=O)N[C@@H](CC(N)=O)C(=O)N[C@@H](Cc1c[nH]cn1)C(=O)N[C@@H](CCC(=O)O)C(=O)O` [pep1d, DKGNHE], for which, in series [2], the IC50 is 3300 µM. In series [1], LYGNYE [J3.5, LYGNYE] yielded a Kd above 1 µM. On the same count and under the same terms, the figure for MYGNYE [J3.4, MYGNYE] is above 10 µM.
